Key:
[1] = test system: calvaria (PTH enhanced bone); experiment: Inhibitory effect on bone absorption (calcium liberation from PTH enhanced cultured calvaria); type: cell-based, newborn dd mouse; conditions: mouse calvaria culture, PTH 1 x 10^-8M, 96 hours, calcium in the culture; test compound 3 x 10^-6M, 1 x 10^-5M, 3 x 10^-5M
Description: Test Example 1: Inhibitory effect on bone absorption
The calvaria was excised from a newborn dd mouse (5 to 6 days old) under sterile conditions. The calvaria was washed with a modified Dulbecco phosphate buffer physiological saline solution containing neither calcium nor magnesium (a product of Gibco Oriental), and divided into two parts along the center suture. A half of the calvaria was cultivated in a modified Dulbecco Eagle medium (1.5 ml) (a product of Gibco Oriental) containing 2.5% fetal calf serum and 15% equine serum which had been inactivated by heating at 56°C for 20 minutes. The test compound was dissolved in dimethyl sulfoxide and 10 µl of the resulting solution was added to the culture medium to give the final concentrations of 3 x 10^-6M, 1 x 10^-5M, and 3 x 10^-5M. PTH (parathyroid hormone) was dissolved in a 0.15 M saline solution (pH 3) and 3 µl of the resulting solution was added to the culture medium to give the final concentration of 1 x 10^-8M. The culturing was carried out under the condition of 95% air and 5% carbon dioxide and at a temperature of 37°C for 96 hours. At 48 hours after the start of the culturing, the culture medium was renewed and the test compound and PTH treated as defined above were added thereto. For examining the effect of the test compound on calcium liberation (bone absorption) from the PTH enhanced bone, a control group, a group using PTH (1 x 10^-8M), and a group using both the test compound (3 x 10^-6M, 1 x 10^-5M, 3 x 10^-5M) and PTH were prepared. The amount of the bone absorption was determined by measuring the amount of calcium accumulated in the culture as collected after 96 hours of culturing. The total calcium concentration in the culture was measured with Calcium C Test Wako. The inhibition rate was calculated using the following equation and the result was shown in terms of 50% inhibitory concentration (IC50). Inhibition of bone absorption from PTH enhanced bone Inhibition rate (%) = [(CP - CD )/(CP - C0 )] x 100 [formula] • C0 : The total calcium concentration in the culture containing neither the test compound nor PTH. • CP : The total calcium concentration in the culture treated with only PTH. • CD : The total calcium concentration in the culture treated with both the test compound and PTH.

[2] = test system: ovariectomized rats; experiment: Inhibitory effect on the increase of urinary hydroxyproline excretion by ovariectomy; type: in vivo, female SD strain rats; conditions: 10 mg/kg orally once a day for two weeks, hydroxyproline/creatinine molar ratio in 24 hour urine
Description: The inhibitory effect of the compounds of the present application on bone resorption was also determined by their inhibitory effect on the excretion of urinary hydroxyproline which is elevated by ovariectomy of the animals tested, according to the report of Kalu et al. [Bone and Mineral., 14, 175 (1991)].
Test Example 2: Inhibitory effect on the increase of urinary hydroxyproline excretion by ovariectomy
12-weeks-old female SD strain rats (Japan Clea Co., Ltd.) were acclimated for 1 week during which they were given tap water and a standard diet (F2; Funabashi Farmas) ad libitum. The experiment was carried out using the rats weighing 270-310 g. After the animals were subjected to sham operation or bilateral ovariectomy, they were allowed free access to water passed through ion exchange resin instead of tap water, and were housed in individual cages. The test compound (10 mg/kg) was suspended in 0.3% Tween, and the obtained suspension was orally administered to the ovariectomized rats once a day for two weeks starting from the day following ovariectomy (0.5 ml/100 g body weight). 0.3% Tween was similarly administered to sham-operated rats and ovariectomized control rats. After the final administration, the rats were placed in individual metabolic cages and fasted during 24 hours, and urine was collected. The volume of the collected urine was measured and the urine was centrifuged at 3,000 rpm for 15 min at 4°C. The concentration of hydroxyproline in the supernatant was measured by the method of Ikeda et al. [Ann. Rep. Tokyo Metr. Res. Lab. P. H., 36, 277-282 (1985)] and the concentration of creatinine in the supernatant was measured with creatinine test WAKO (Wako Pure Chem.) The amount of urinary hydroxyproline excretion was expressed by the molar ratio of the amount of hydroxyproline to the amount of creatinine. The rate of inhibition on increase of the amount of urinary hydroxyproline excretion in ovariectomized rats treated with the test compound compared to that of the control group was calculated using the following equation. […]

With `O=S(=O)(c1[nH]c2ccccc2c1C(c1ccc(O)cc1)c1ccc(O)cc1)N1CCN(c2ccccc2Cl)CC1` [Compound 14, 3-[Bis(4-hydroxyphenyl)methyl]-2-[4-(2-chlorophenyl)piperazinylsulfonyl]indole] the IC50 [1] was 14.1 µM.
In the case of `O=S(=O)(c1c(C(c2ccc(O)cc2)c2ccc(O)cc2)c2ccccc2n1CCN1CCOCC1)N1CCN(c2ccccc2Cl)CC1` [Compound 16, 3-[Bis(4-hydroxyphenyl)methyl]-2-[4-(2-chlorophenyl)piperazinylsulfonyl]-1-(2-morpholinoethyl)indole], the “Inhibition rate of increase of the amount of urinary hydroxyproline excretion” value [2] is reported as 32%.
With `CN(C)CCn1c(S(=O)(=O)N2CCCCC2)c(C(c2ccc(O)cc2)c2ccc(O)cc2)c2ccccc21` [Compound 17, 3-[Bis(4-hydroxyphenyl)methyl]-1-(2-dimethylaminoethyl)-2-(piperidinosulfonyl)indole] the IC50 [1] was 13.7 µM.
`CCN(CC)S(=O)(=O)c1c(C(c2ccc(O)cc2)c2ccc(O)cc2)c2ccccc2n1CCN(C)C` [Compound 18, N,N-Diethyl-3-[bis(4-hydroxyphenyl)methyl]-1-(2-dimethylaminoethyl)indole-2-sulfonamide] was tested, and the “Inhibition rate of increase of the amount of urinary hydroxyproline excretion” value [2] was 22% and the IC50 [1] was 13.3 µM.
With `CN(C)CCn1c(S(=O)(=O)N2CCCCC2)c(C(c2ccccc2)c2ccccc2)c2ccccc21` [Compound 24, 1-(2-Dimethylaminoethyl)-3-(diphenylmethyl)-2-(piperidinosulfonyl)indole] the “Inhibition rate of increase of the amount of urinary hydroxyproline excretion” value [2] was 100% and the IC50 [1] was 13.7 µM.

Reference: patent publication EP0782987A1, “INDOLE DERIVATIVES” (KYOWA HAKKO KOGYO CO., LTD., priority 1995, dated 1997)
